Measurements reported in ChEMBL document CHEMBL2016493, “Design, synthesis, synergistic antimicrobial activity and cytotoxicity of 4-aryl substituted 3,4-dihydropyrimidinones of curcumin” (Bioorg Med Chem Lett, 2012).
Calls of active or inactive are those of the source. The rule behind the calls is not given here.

Assays:
[1] = tested on: Staphylococcus aureus; assay: Antibacterial activity against Staphylococcus aureus ATCC 11632 at 160 uM/ml after 24 hrs by kirby-bauer method; format: functional; settings: ATCC 11632, 24 h, read-out: IZ
[2] = tested on: Salmonella typhimurium; assay: Antibacterial activity against Salmonella typhimurium ATCC 23564 at 160 uM/ml after 24 hrs by kirby-bauer method; format: functional, Salmonella enterica subsp. enterica serovar Typhimurium; settings: Salmonella enterica, ATCC 23564, 24 h; read-out: IZ
[3] = tested on: Curvularia lunata; assay: Antifungal activity against Curvularia lunata MTCC 581 at 160 uM/ml after 48 hrs by paper disc diffusion method; format: functional; settings: MTCC 581, 48 h, read-out: IZ
[4] = tested on: Staphylococcus aureus; assay: Antibacterial activity against Staphylococcus aureus ATCC 11632 at 20 uM/ml after 24 hrs by kirby-bauer method; format: functional
[5] = tested on: Salmonella typhimurium; assay: Antibacterial activity against Salmonella typhimurium ATCC 23564 at 40 uM/ml after 24 hrs by kirby-bauer method; format: functional; settings: Salmonella enterica subsp. enterica serovar Typhimurium
[6] = tested on: Aspergillus niger; assay: Antifungal activity against Aspergillus niger MTCC 1108 at 80 uM/ml after 48 hrs by paper disc diffusion method; format: functional
[7] = tested on: Aspergillus niger; assay: Antifungal activity against Aspergillus niger MTCC 1108 at 40 uM/ml after 48 hrs by paper disc diffusion method; format: functional
[8] = tested on: Trichoderma viride; assay: Antifungal activity against Trichoderma viride MTCC 1107 at 160 uM/ml after 48 hrs by paper disc diffusion method; format: functional; settings: MTCC 1107, 48 h, read-out: IZ
[9] = tested on: Escherichia coli; assay: Antibacterial activity against Escherichia coli ATCC 35218 at 40 uM/ml after 24 hrs by kirby-bauer method; format: functional; settings: ATCC 35218, 24 h, read-out: IZ
[10] = tested on: Escherichia coli; assay: Antibacterial activity against Escherichia coli ATCC 35218 at 160 uM/ml after 24 hrs by kirby-bauer method; format: functional; settings: ATCC 35218, 24 h, read-out: IZ
[11] = tested on: Curvularia lunata; assay: Antifungal activity against Curvularia lunata MTCC 581 at 40 uM/ml after 48 hrs by paper disc diffusion method; format: functional
[12] = tested on: Staphylococcus aureus; assay: Antibacterial activity against Staphylococcus aureus ATCC 11632 at 80 uM/ml after 24 hrs by kirby-bauer method; format: functional; settings: ATCC 11632, 24 h, read-out: IZ
[13] = tested on: Curvularia lunata; assay: Antifungal activity against Curvularia lunata MTCC 581 at 20 uM/ml after 48 hrs by paper disc diffusion method; format: functional
[14] = tested on: HepG2
[15] = tested on: Salmonella typhimurium; assay: Antibacterial activity against Salmonella typhimurium ATCC 23564 at 80 uM/ml after 24 hrs by kirby-bauer method; format: functional, Salmonella enterica subsp. enterica serovar Typhimurium
[16] = tested on: Trichoderma viride; assay: Antifungal activity against Trichoderma viride MTCC 1107 at 80 uM/ml after 48 hrs by paper disc diffusion method; format: functional; settings: MTCC 1107, 48 h, read-out: IZ
[17] = tested on: QG-56; assay: Cytotoxicity against human QG56 cells after 48 hrs by MTT assay; format: functional, cell-based
[18] = tested on: Salmonella typhimurium; assay: Antibacterial activity against Salmonella typhimurium ATCC 23564 at 20 uM/ml after 24 hrs by kirby-bauer method; format: functional; settings: Salmonella enterica subsp. enterica serovar Typhimurium
[19] = tested on: Trichoderma viride; assay: Antifungal activity against Trichoderma viride MTCC 1107 at 40 uM/ml after 48 hrs by paper disc diffusion method; format: functional; settings: MTCC 1107, 48 h, read-out: IZ
[20] = tested on: Aspergillus flavus; assay: Antifungal activity against Aspergillus flavus MTCC 1021 at 160 uM/ml after 48 hrs by paper disc diffusion method; format: functional
[21] = tested on: Trichoderma viride; assay: Antifungal activity against Trichoderma viride MTCC 1107 at 20 uM/ml after 48 hrs by paper disc diffusion method; format: functional; settings: MTCC 1107, 48 h, read-out: IZ
[22] = tested on: Escherichia coli; assay: Antibacterial activity against Escherichia coli ATCC 35218 at 80 uM/ml after 24 hrs by kirby-bauer method; format: functional; settings: ATCC 35218, 24 h, read-out: IZ
[23] = tested on: Staphylococcus aureus; assay: Antibacterial activity against Staphylococcus aureus ATCC 11632 at 40 uM/ml after 24 hrs by kirby-bauer method; format: functional
[24] = tested on: Curvularia lunata; assay: Antifungal activity against Curvularia lunata MTCC 581 at 80 uM/ml after 48 hrs by paper disc diffusion method; format: functional; settings: MTCC 581, 48 h, read-out: IZ
[25] = tested on: Aspergillus niger; assay: Antifungal activity against Aspergillus niger MTCC 1108 at 160 uM/ml after 48 hrs by paper disc diffusion method; format: functional
[26] = tested on: Pseudomonas aeruginosa; assay: Antibacterial activity against Pseudomonas aeruginosa ATCC 15499 at 80 uM/ml after 24 hrs by kirby-bauer method; format: functional
[27] = tested on: Pseudomonas aeruginosa; assay: Antibacterial activity against Pseudomonas aeruginosa ATCC 15499 at 40 uM/ml after 24 hrs by kirby-bauer method; format: functional
[28] = tested on: Aspergillus niger; assay: Antifungal activity against Aspergillus niger MTCC 1108 at 20 uM/ml after 48 hrs by paper disc diffusion method; format: functional
[29] = tested on: Burkholderia pseudomallei; assay: Antibacterial activity against Burkholderia pseudomallei NTCC 10274 at 160 uM/ml after 24 hrs by kirby-bauer method; format: functional
[30] = tested on: HCT-116
[31] = tested on: Pseudomonas aeruginosa; assay: Antibacterial activity against Pseudomonas aeruginosa ATCC 15499 at 20 uM/ml after 24 hrs by kirby-bauer method; format: functional
[32] = tested on: Pseudomonas aeruginosa; assay: Antibacterial activity against Pseudomonas aeruginosa ATCC 15499 at 160 uM/ml after 24 hrs by kirby-bauer method; format: functional; settings: ATCC 15499, 24 h, read-out: IZ
[33] = tested on: Escherichia coli; assay: Antibacterial activity against Escherichia coli ATCC 35218 at 20 uM/ml after 24 hrs by kirby-bauer method; format: functional; settings: ATCC 35218, 24 h, read-out: IZ
[34] = tested on: Burkholderia pseudomallei; assay: Antibacterial activity against Burkholderia pseudomallei NTCC 10274 at 20 uM/ml after 24 hrs by kirby-bauer method; format: functional
[35] = tested on: Burkholderia pseudomallei; assay: Antibacterial activity against Burkholderia pseudomallei NTCC 10274 at 80 uM/ml after 24 hrs by kirby-bauer method; format: functional; settings: NTCC 10274, 24 h, read-out: IZ
[36] = tested on: Burkholderia pseudomallei; assay: Antibacterial activity against Burkholderia pseudomallei NTCC 10274 at 40 uM/ml after 24 hrs by kirby-bauer method; format: functional

Row | Structure (SMILES) | zone of inhibition at 160 µM [1] | zone of inhibition at 160 µM [2] | zone of inhibition at 160 µM [3] | inhibition zone (IZ) [4] | inhibition zone (IZ) [5] | zone of inhibition at 160 µM [8] | zone of inhibition at 40 µM [9] | zone of inhibition at 160 µM [10] | zone of inhibition at 80 µM [12] | IC50 [14] | zone of inhibition at 80 µM [16] | IC50 [17] | inhibition zone (IZ) [18] | zone of inhibition [19] | inhibition zone (IZ) [20] | zone of inhibition at 20 µM [21] | zone of inhibition at 80 µM [22] | inhibition zone (IZ) [23] | zone of inhibition at 80 µM [24] | IC50 [30] | further results
1 | COc1cc(/C=C/C(=O)C2=C(/C=C/c3ccc(O)c(OC)c3)NC(=O)NC2c2ccc(Cl)cc2)ccc1O (stereo unspecified) | 12 mm | 11 mm | 22 mm | inactive | inactive | 18 mm | 11 mm | 19 mm | 10 mm | 100 uM/ml | 17 mm | 100 uM/ml | inactive | 17 mm | inactive | 15 mm | 16 mm | inactive | 18 mm | 100 uM/ml | inhibition zone (IZ) [6]: inactive; inhibition zone (IZ) [7]: inactive; zone of inhibition at 40 µM ([11]; MTCC 581, 48 h, read-out: IZ): 12 mm; zone of inhibition at 20 µM ([13]; MTCC 581, 48 h, read-out: IZ): 9 mm; zone of inhibition at 80 µM ([15]; Salmonella enterica, ATCC 23564, 24 h, read-out: IZ): 9 mm; zone of inhibition at 160 µM ([25]; MTCC 1108, 48 h, read-out: IZ): 12 mm; inhibition zone (IZ) [26]: inactive; inhibition zone (IZ) [27]: inactive; inhibition zone (IZ) [28]: inactive; inhibition zone (IZ) [29]: inactive; inhibition zone (IZ) [31]: inactive; zone of inhibition at 160 µM [32]: 9 mm; zone of inhibition at 20 µM [33]: 9 mm
2 | COc1cc(/C=C/C(=O)C2=C(/C=C/c3ccc(O)c(OC)c3)NC(=O)NC2c2ccc([N+](=O)[O-])cc2)ccc1O (stereo unspecified) | 11 mm | 10 mm | 11 mm | inactive | inactive | 21 mm | 15 mm | 18 mm | 10 mm | 100 uM/ml | 21 mm | 100 uM/ml | inactive | 19 mm | inactive | 17 mm | 16 mm | inactive | 9 mm | 50 uM/ml | inhibition zone (IZ) [11]: inactive; inhibition zone (IZ) [34]: inactive; inhibition zone (IZ) [13]: inactive; inhibition zone (IZ) ([15]; Salmonella enterica subsp. enterica serovar Typhimurium): inactive; zone of inhibition at 80 µM [35]: 10 mm; inhibition zone (IZ) [36]: inactive; inhibition zone (IZ) [25]: inactive; zone of inhibition at 80 µM ([26]; ATCC 15499, 24 h, read-out: IZ): 18 mm; zone of inhibition at 40 µM ([27]; ATCC 15499, 24 h, read-out: IZ): 14 mm; zone of inhibition at 160 µM ([29]; NTCC 10274, 24 h, read-out: IZ): 12 mm; zone of inhibition at 20 µM ([31]; ATCC 15499, 24 h, read-out: IZ): 9 mm; zone of inhibition at 160 µM [32]: 19 mm; zone of inhibition at 20 µM [33]: 12 mm
